Measured values as given in publication PMC11460631, “Inhibition of transient receptor potential vanilloid 3 channels by antimalarial hydroxychloroquine alleviates TRPV3-dependent dermatitis” (The Journal of Biological Chemistry, 2024).

What was measured:
TRPV3 = target: T1, TRPV3 (Homo sapiens, UniProt Q8NET8); assay: Calcium imaging (Fluo-4/AM) of TRPV3-expressing HEK293T cells; format: cell-based
T1 construct: YFP or GFP; expressed in transfected cells; host or cells: HEK293T
T1 sequence (Q8NET8 1-790): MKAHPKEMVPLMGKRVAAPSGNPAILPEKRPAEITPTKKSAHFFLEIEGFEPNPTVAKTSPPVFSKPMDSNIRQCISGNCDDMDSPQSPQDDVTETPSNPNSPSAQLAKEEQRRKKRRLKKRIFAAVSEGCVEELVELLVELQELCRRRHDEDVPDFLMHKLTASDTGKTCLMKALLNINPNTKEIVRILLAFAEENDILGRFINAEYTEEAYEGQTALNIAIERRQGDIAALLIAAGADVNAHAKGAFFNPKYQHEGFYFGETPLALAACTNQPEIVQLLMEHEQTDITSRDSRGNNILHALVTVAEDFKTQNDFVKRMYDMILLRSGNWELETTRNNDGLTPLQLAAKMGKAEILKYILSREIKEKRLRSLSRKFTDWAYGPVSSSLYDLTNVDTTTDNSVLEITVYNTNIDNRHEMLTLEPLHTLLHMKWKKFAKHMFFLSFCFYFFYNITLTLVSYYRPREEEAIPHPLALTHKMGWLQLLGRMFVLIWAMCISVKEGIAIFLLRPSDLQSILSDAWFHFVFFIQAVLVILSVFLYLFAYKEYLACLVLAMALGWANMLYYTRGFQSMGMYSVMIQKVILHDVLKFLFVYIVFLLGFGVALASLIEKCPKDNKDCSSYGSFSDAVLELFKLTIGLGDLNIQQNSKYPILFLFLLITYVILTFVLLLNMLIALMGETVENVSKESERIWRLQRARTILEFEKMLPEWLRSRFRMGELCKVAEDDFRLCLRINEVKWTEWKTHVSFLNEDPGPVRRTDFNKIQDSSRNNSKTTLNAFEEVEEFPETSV
Procedure: HEK293T cells are cultured using Dulbecco's modified Eagle's medium containing 10% fetal bovine serum and 1% penicillin-streptomycin in a cell incubator with 5% CO2 at 37 °C. Plasmids of murine TRPV1, TRPV4, TRPM8, and human TRPV3, TRPA1 are labeled with YFP or GFP as indicators for subsequent electrophysiological recordings. Complementary DNA constructs of ion channels were transiently transfected with Lipofectamine 3000 (Invitrogen). And 12 to 18 h after transient transfection, electrophysiological recordings were performed.
Calcium imaging assays were performed as described previously ([37]). Transiently transfected HEK293 cells seeded on 25 mm coverslips were washed twice with an extracellular solution containing 140 mM NaCl, 5 mM KCl, 2 mM MgCl2, 2 mM CaCl2, 10 mM glucose, and 10 mM Hepes (pH 7.4), followed by incubation in 2 ml of extracellular solution supplemented with 2 μM Fluo-4/AM as a Molecular Probes at room temperature for 60 min. Fluorescence images of HEK293T cells were acquired with a Nikon Eclipse Ti2 microscope with an optiMOS charge-coupled device camera controlled by the Ocular Software ([…]; https://www.photometrics.com/products/ocular).

C57BL/6J male mice = assay: Carvacrol-induced AD-like mouse model: skin appearance scores and H&E epidermal thickness; format: in vivo
Procedure: We therefore generated a carvacrol-induced AD mouse model to test the effect of HCQ.
To investigate the effect of HCQ on carvacrol-induced dermatitis in animals, C57BL/6J male mice (aged 6 weeks) were obtained from the Animal Experimental Center of Hangzhou Medical College (Hangzhou, Zhejiang Province). Mice were housed and maintained in an environment with a 12-h light/dark cycle and a controlled temperature of 22.0 ± 2.0 °C. Food and water were accessible ad libitum. All the animal procedures were approved by the Institutional Animal Care & Use Committee of Zhejiang Center of Laboratory Animals (ZJCLA).
To generate an AD-like mice model, 2% carvacrol (dissolved in 30% ethanol solution) was topically smeared onto the mice dorsum 1 day after hair removal with a depilatory cream (Vetin Depilatory Cream). Mice received a topical administration of an equal volume (200 μl) of 2% carvacrol or in the presence of 2 mg/ml HCQ. […] After the application of carvacrol for 5 days, the external appearance of mice was photographed and then sampled. The external appearance was graded based on three aspects: thickness, erythema/bleeding, and dryness/desquamation, with severity assessed on a score of 0 to 4. The degree of thickness was measured by the thickness of the skin in H&E staining. Skin tissues were either fixed in 4% paraformaldehyde or placed in PBS buffer containing 1% protease inhibitor, facilitating subsequent steps of paraffin embedding or ELISA experiments.
Mice were sacrificed 24 h after the last dose of treatment. Mouse dorsal skin was removed with scissors and forceps before being fixed with 4% paraformaldehyde. Paraffin-embedded tissues were sectioned and stained with H&E. Pictures of stained sections were acquired with a Nikon Eclipse Ti-S microscope with a charge-coupled device camera (DS-Ri2, Nikon).

calcium influx, area under the curve (AUC) (TRPV3; 100 μM HCQ mixed with 1 mM 2-APB): 8.65 ± 0.83
calcium influx, area under the curve (AUC) (TRPV3; 300 μM HCQ mixed with 1 mM 2-APB): 0.28 ± 0.05
Structure (SMILES): CCN(CCO)CCCC(C)Nc1ccnc2cc(Cl)ccc12 (centres unmarked) [HCQ, hydroxychloroquine]
dry desquamation score (C57BL/6J male mice; score of 0 to 4, topical, 5 days, 2% carvacrol alone or with HCQ 2 mg/ml): 1.50 ± 0.22
erythema score (C57BL/6J male mice; score of 0 to 4, topical, 5 days, 2% carvacrol alone or with HCQ 2 mg/ml or DXM 1 mg/ml): 1.67 ± 0.33
epidermal thickness (H&E staining) (C57BL/6J male mice; topical with 2% carvacrol, once a day for 5 days, HCQ 2 mg/ml, DXM 1 mg/ml, 200 μl): 51.49 ± 3.01 μm
